From US20150023885A1, “Antiperspirant Spray Devices and Compositions” (The Procter & Gamble Company, priority 2013, published 2015) come the findings set out here.

The text on the series: Solubility may be determined by measuring the amount of light transmittance (a light transmittance value) through a simple mixture of the non-volatile silicone fluid and liquid activation enhancer at the same weight/weight concentrations as in a final antiperspirant composition.
Solubility of a liquid activation enhancer in a non-volatile silicone may be determined by measuring the amount of light transmittance (light transmittance value) through a simple mixture of the non-volatile silicone fluid and liquid activation enhancer at the same weight/weight concentrations as in a final antiperspirant composition.
The Spectronic Genesys 10 Vis utilizes a tungsten-halogen light source and has a spectral bandwidth of 5 nm, a wavelength range of 325 to 1100 nm, accuracy of ±1 nm and a repeatability of ±0.5 nm. Readouts include absorbance, transmittance and concentration. The spectrophotometer is set to 640 nm wavelength and the percent transmittance mode/readout. Polystyrene spectrometer cuvettes having a 1 cm optical light path and transmittance between ˜340 nm and ˜900 nm are used. One suitable example of a spectrometer cuvette is available from VWR International LLC under Catalog #97000-584 having a 2.5 to 4.5 ml capacity. The spectrophotometer is calibrated according to the manufacturer's instructions using a reference cuvette and composition comprised of just the non-volatile silicone fluid of interest. For example, if the test composition comprises 50 centistoke dimethicone and 15% w/w of isopropyl myristate, then the spectrometer is calibrated using a cuvette containing just 50 centistoke dimethicone. Sample cuvettes are filled sufficiently with a test composition of a non-volatile silicone fluid and liquid activation enhancer so that the light path of the spectrophotometer passes through the test composition in the cuvette. The sample cuvettes are shaken well just prior to taking a light transmittance reading.

mineral oil: the light transmittance value result was “about 100%”. As to `CCCCCCCCCCCCCC(C)C` [isohexadecane], the light transmittance value result was “about 100%” and the “solubility in 50 centistoke dimethicone” value was “soluble in 50 centistoke dimethicone across the 2% to 30% w/w concentration range”.

Take PPG-14 butyl ether: the “solubility in 50 centistoke dimethicone” value was “insoluble in 50 centistoke dimethicone across the 2% to 30% w/w concentration range”.

Regarding `CCCCCCCCCCCCCCCCCC(=O)OCCCC` [butyl stearate], the light transmittance value result is reported as “about 100%”.
